Data reported in ChEMBL document CHEMBL4507260 (2021).

Columns and labels:
Details in all cases: Compound concentration 1000.0 nM
[1] = target: Serine/threonine-protein kinase Nek6 (Homo sapiens) (UniProt Q9HC98)
[2] = target: Cyclin-G-associated kinase (Homo sapiens) (UniProt O14976)
[3] = target: Vascular endothelial growth factor receptor 2 (Homo sapiens) (UniProt P35968)
[4] = target: SRSF protein kinase 2 (Homo sapiens) (UniProt P78362)
[5] = target: Serine/threonine-protein kinase 38-like (Homo sapiens) (UniProt Q9Y2H1)
[6] = target: Serine/threonine-protein kinase Sgk3 (Homo sapiens) (UniProt Q96BR1)
[7] = target: Tyrosine-protein kinase ZAP-70 (Homo sapiens) (UniProt P43403)
[8] = target: Testis-specific serine/threonine-protein kinase 3 (Homo sapiens) (UniProt Q96PN8)
[9] = target: 1-phosphatidylinositol 3-phosphate 5-kinase (Homo sapiens) (UniProt Q9Y2I7)
[10] = target: Serine/threonine-protein kinase WNK2 (Homo sapiens) (UniProt Q9Y3S1)
[11] = target: Serine/threonine-protein kinase SIK2 (Homo sapiens) (UniProt Q9H0K1)
[12] = target: Dual specificity testis-specific protein kinase 1 (Homo sapiens) (UniProt Q15569)
[13] = target: NT-3 growth factor receptor (Homo sapiens) (UniProt Q16288)
[14] = target: Atypical kinase COQ8A, mitochondrial (Homo sapiens) (UniProt Q8NI60)
[15] = target: Calcium/calmodulin-dependent protein kinase type 1G (Homo sapiens) (UniProt Q96NX5)
[16] = target: Serine/threonine-protein kinase D3 (Homo sapiens) (UniProt O94806)
[17] = target: Serine/threonine-protein kinase PLK2 (Homo sapiens) (UniProt Q9NYY3)
[18] = target: Phosphatidylinositol 4-kinase beta (Homo sapiens) (UniProt Q9UBF8)
[19] = target: Tyrosine-protein kinase FRK (Homo sapiens) (UniProt P42685)
[20] = target: SNF-related serine/threonine-protein kinase (Homo sapiens) (UniProt Q9NRH2)
[21] = target: Ephrin type-B receptor 1 (Homo sapiens) (UniProt P54762)
[22] = target: 5'-AMP-activated protein kinase catalytic subunit alpha-1 (Homo sapiens) (UniProt Q13131)
[23] = target: Mitogen-activated protein kinase kinase kinase 3 (Homo sapiens) (UniProt Q99759)
[24] = target: Casein kinase II subunit alpha' (Homo sapiens) (UniProt P19784)
[25] = target: Serine/threonine-protein kinase Sgk1 (Homo sapiens) (UniProt O00141)
[26] = target: Dual specificity tyrosine-phosphorylation-regulated kinase 2 (Homo sapiens) (UniProt Q92630)
[27] = target: Mitogen-activated protein kinase kinase kinase 1 (Homo sapiens) (UniProt Q13233)
[28] = target: Serine/threonine-protein kinase D2 (Homo sapiens) (UniProt Q9BZL6)
[29] = target: Activin receptor type-1-like (Homo sapiens) (UniProt P37023)
[30] = target: Serine/threonine-protein kinase 26 (Homo sapiens) (UniProt Q9P289)
[31] = target: Phosphorylase b kinase gamma catalytic chain, skeletal muscle/heart isoform (Homo sapiens) (UniProt Q16816)
[32] = target: Serine/threonine-protein kinase 17B (Homo sapiens) (UniProt O94768)
[33] = target: Homeodomain-interacting protein kinase 4 (Homo sapiens) (UniProt Q8NE63)
[34] = target: Rhodopsin kinase GRK7 (Homo sapiens) (UniProt Q8WTQ7)
[35] = target: Mitogen-activated protein kinase 13 (Homo sapiens) (UniProt O15264)
[36] = target: Serine/threonine-protein kinase TAO2 (Homo sapiens) (UniProt Q9UL54)
[37] = target: Receptor tyrosine-protein kinase erbB-2 (Homo sapiens) (UniProt P04626)
[38] = target: Fibroblast growth factor receptor 3 (Homo sapiens) (UniProt P22607)
[39] = target: Homeodomain-interacting protein kinase 3 (Homo sapiens) (UniProt Q9H422)
[40] = target: Bone morphogenetic protein receptor type-1B (Homo sapiens) (UniProt O00238)
[41] = target: Homeodomain-interacting protein kinase 1 (Homo sapiens) (UniProt Q86Z02)
[42] = target: Eukaryotic translation initiation factor 2-alpha kinase 1 (Homo sapiens) (UniProt Q9BQI3)
[43] = target: Casein kinase II subunit alpha (Homo sapiens) (UniProt P68400)
[44] = target: Tyrosine-protein kinase Mer (Homo sapiens) (UniProt Q12866)
[45] = target: Serine/threonine-protein kinase PknB (Mycobacterium tuberculosis) (UniProt P9WI81)

Measured: residual activity

Sequence of Mitogen-activated protein kinase 13 (Homo sapiens) (O15264 whole entry): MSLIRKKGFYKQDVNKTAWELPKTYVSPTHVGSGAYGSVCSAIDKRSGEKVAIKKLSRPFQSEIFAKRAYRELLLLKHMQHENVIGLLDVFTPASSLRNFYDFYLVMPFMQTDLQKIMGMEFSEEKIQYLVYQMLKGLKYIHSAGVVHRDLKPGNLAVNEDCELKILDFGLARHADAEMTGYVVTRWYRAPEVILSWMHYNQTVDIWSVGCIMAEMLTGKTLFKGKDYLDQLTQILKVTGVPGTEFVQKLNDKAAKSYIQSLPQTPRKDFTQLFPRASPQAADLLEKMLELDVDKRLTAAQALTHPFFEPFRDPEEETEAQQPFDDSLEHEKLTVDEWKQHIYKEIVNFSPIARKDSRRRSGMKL
Sequence of Dual specificity testis-specific protein kinase 1 (Homo sapiens) (Q15569 whole entry, looked up): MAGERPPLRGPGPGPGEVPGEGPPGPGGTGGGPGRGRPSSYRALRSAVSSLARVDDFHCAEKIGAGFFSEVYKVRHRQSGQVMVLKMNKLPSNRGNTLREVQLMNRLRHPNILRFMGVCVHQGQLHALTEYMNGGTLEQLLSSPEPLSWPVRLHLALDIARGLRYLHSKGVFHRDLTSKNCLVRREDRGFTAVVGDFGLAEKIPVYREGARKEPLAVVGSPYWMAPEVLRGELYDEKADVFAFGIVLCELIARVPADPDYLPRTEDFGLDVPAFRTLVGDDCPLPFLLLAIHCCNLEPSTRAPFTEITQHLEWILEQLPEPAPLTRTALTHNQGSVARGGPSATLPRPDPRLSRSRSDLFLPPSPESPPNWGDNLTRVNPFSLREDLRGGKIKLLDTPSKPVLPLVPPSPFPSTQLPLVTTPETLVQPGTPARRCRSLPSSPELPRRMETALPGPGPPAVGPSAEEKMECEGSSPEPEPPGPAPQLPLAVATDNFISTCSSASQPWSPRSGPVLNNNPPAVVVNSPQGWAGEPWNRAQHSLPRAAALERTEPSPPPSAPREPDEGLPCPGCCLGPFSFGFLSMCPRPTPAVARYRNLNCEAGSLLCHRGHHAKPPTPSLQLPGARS
Sequence of Casein kinase II subunit alpha' (Homo sapiens) (P19784 whole entry, looked up): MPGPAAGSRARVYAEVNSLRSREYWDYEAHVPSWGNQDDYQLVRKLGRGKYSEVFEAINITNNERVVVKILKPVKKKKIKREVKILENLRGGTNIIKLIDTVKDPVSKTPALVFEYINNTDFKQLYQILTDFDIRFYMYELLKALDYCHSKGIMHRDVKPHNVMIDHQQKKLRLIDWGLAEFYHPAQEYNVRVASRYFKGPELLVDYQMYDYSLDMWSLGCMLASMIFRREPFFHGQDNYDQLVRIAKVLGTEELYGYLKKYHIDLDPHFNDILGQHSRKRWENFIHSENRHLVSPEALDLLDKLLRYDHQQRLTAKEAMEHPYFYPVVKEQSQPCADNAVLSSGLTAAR
Sequence of Cyclin-G-associated kinase (Homo sapiens) (O14976 whole entry): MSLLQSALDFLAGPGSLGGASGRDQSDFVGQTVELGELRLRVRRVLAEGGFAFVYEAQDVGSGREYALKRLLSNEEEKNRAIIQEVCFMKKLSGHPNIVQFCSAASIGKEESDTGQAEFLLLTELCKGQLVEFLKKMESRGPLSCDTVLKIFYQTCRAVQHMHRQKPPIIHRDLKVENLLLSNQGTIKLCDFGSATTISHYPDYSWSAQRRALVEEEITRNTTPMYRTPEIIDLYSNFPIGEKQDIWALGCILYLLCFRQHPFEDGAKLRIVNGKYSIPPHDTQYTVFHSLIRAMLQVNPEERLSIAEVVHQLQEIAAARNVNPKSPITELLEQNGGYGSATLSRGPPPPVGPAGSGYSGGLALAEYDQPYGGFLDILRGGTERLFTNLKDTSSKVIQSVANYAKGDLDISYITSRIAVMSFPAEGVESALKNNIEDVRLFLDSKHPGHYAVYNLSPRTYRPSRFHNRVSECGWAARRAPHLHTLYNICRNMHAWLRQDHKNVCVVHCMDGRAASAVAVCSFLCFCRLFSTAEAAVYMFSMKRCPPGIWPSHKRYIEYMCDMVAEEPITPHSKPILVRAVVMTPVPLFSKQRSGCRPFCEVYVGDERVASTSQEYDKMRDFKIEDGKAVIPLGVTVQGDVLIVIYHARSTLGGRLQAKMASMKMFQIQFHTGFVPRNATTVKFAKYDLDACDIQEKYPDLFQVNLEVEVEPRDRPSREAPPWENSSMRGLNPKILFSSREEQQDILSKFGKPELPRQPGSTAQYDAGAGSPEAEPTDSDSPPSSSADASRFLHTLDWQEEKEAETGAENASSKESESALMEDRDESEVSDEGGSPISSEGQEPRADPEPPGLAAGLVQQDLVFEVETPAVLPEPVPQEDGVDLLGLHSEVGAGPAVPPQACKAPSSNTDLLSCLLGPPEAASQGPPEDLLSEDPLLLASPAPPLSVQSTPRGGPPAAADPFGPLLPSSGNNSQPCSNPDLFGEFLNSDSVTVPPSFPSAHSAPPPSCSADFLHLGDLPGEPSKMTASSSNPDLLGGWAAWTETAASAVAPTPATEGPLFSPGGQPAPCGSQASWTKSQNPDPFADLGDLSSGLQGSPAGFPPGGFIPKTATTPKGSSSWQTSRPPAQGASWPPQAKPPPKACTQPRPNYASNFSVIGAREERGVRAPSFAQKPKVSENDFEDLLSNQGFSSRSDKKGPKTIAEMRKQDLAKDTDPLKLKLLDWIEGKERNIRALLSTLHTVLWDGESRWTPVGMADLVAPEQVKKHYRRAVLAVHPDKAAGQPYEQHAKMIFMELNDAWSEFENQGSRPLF
Sequence of Calcium/calmodulin-dependent protein kinase type 1G (Homo sapiens) (Q96NX5 whole entry): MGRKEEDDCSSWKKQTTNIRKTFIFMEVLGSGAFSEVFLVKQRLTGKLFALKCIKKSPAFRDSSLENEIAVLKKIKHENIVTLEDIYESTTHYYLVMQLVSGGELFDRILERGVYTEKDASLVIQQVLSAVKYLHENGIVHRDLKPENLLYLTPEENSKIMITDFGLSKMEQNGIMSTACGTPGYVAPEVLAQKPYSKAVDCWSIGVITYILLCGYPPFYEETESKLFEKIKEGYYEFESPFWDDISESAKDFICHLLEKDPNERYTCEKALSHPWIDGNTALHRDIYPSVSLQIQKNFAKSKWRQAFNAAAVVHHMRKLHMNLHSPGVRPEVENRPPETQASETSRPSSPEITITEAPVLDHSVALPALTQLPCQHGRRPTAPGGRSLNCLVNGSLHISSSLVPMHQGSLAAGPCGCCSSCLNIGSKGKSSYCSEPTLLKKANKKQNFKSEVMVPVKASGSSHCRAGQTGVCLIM
Sequence of Tyrosine-protein kinase Mer (Homo sapiens) (Q12866 whole entry): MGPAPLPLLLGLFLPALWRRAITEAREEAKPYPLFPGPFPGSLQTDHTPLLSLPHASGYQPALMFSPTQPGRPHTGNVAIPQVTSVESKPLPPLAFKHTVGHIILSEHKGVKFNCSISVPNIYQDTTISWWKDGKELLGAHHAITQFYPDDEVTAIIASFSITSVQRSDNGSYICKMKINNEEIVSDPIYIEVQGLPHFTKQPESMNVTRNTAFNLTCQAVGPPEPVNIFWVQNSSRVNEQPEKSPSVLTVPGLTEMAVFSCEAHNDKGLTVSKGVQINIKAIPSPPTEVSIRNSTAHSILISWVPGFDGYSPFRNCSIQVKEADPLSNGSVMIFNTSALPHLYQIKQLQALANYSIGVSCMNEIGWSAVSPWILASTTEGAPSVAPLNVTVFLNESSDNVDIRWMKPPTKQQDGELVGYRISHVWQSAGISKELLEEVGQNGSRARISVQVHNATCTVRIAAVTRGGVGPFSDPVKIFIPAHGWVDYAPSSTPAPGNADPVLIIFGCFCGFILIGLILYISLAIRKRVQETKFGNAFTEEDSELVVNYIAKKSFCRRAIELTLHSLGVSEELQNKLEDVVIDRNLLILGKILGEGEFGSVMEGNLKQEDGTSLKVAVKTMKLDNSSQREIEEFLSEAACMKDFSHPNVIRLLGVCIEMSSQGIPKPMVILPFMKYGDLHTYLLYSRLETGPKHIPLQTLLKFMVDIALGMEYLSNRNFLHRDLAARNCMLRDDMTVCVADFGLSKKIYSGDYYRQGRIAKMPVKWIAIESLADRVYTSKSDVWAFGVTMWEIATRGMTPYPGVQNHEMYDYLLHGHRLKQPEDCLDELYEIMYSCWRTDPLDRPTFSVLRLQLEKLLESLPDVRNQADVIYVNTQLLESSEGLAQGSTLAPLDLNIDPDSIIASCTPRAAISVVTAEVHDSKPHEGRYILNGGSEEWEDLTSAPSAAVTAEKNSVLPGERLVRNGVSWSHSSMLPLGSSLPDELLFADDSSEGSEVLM
Sequence of Serine/threonine-protein kinase SIK2 (Homo sapiens) (Q9H0K1 whole entry, looked up): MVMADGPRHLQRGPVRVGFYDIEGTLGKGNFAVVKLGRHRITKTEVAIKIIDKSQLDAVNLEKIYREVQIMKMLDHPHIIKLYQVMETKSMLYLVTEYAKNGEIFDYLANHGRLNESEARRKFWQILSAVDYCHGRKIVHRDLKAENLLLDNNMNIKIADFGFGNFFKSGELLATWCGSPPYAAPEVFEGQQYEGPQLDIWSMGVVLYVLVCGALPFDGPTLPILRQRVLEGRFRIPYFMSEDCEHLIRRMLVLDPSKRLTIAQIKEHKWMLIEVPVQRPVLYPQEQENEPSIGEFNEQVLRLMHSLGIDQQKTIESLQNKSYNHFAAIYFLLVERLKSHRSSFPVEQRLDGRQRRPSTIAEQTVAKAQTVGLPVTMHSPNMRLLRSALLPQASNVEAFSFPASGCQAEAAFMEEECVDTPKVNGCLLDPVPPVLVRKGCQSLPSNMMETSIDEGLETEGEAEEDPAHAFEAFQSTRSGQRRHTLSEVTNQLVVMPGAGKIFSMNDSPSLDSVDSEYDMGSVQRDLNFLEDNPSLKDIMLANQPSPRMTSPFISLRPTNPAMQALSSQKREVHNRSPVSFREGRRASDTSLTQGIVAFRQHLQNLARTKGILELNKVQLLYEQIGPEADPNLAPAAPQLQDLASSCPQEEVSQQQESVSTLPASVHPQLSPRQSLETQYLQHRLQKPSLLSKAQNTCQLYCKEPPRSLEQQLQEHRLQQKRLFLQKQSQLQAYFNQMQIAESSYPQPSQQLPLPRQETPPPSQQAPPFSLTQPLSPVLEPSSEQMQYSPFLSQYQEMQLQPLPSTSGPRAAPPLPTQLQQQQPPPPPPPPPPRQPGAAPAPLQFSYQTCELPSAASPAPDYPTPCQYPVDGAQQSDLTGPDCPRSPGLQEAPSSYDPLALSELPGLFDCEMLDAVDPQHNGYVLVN

c1ccc(N2CCN(Cc3nc4ccccc4[nH]3)CC2)nc1 [ABT-724]
inactive: [1] 100% | [2] 100% | [3] 100% | [4] 100% | [5] 72% | [6] 100% | [7] 100% | [8] 92% | [9] 100% | [10] 100% | [11] 100% | [12] 97% | [13] 87% | [14] 98% | [15] 100% | [16] 100% | [17] 100% | [18] 100% | [19] 100% | [20] 100% | [21] 100% | [22] 100% | [23] 100% | [24] 100% | [25] 100% | [26] 100% | [27] 99% | [28] 91% | [29] 95% | [30] 100% | [31] 100% | [32] 100% | [33] 91% | [34] 100% | [35] 100% | [36] 83% | [37] 78% | [38] 96% | [39] 100% | [40] 100% | [41] 99% | [42] 100% | [43] 97% | [44] 90% | [45] 87%

CSc1cccnc1N1CCN(Cc2nc3ccccc3[nH]2)CC1 [A-769]
inactive: [1] 98% | [2] 99% | [3] 89% | [4] 59% | [5] 100% | [6] 95% | [7] 99% | [8] 98% | [9] 100% | [10] 100% | [11] 100% | [12] 100% | [13] 83% | [14] 100% | [15] 100% | [16] 100% | [17] 71% | [18] 73% | [19] 92% | [20] 100% | [21] 99% | [22] 83% | [23] 83% | [24] 100% | [25] 82% | [26] 81% | [27] 70% | [28] 100% | [29] 100% | [30] 95% | [31] 96% | [32] 100% | [33] 100% | [34] 87% | [35] 100% | [36] 95% | [37] 88% | [38] 100% | [39] 96% | [40] 80% | [41] 78% | [42] 93% | [43] 81% | [44] 80% | [45] 87%
